The text below walks through data of article PMC8623398, “Investigation of the Mechanisms of Cytotoxic Activity of 1,3-Disubstituted Thiourea Derivatives” (Pharmaceuticals, 2021).

The subject of one series is SW480 cells. Nature of the series: MTT assay, SW480. The class given is cell-based, human. The following applies: 50% growth inhibition. The method, then: (§1) As a first step in assessing their cytotoxic properties, all thioureas of the series were assayed against four human carcinoma cell lines, such as SW480 (primary colon cancer), SW620 (metastatic colon cancer), PC3 (metastatic prostate cancer), and K-562 (chronic myelogenous leukemia), as well as against the normal cell line HaCaT (immortalized human keratinocytes). Table 1 lists the compound concentrations that produced 50% of growth inhibition (IC50, μM), generated by the MTT method, in comparison with two commonly used chemotherapeutic agents, doxorubicin and cisplatin.
(§2) The human primary (SW480), metastatic (SW620) colon cancer, metastatic prostate cancer (PC3), chronic myelogenous leukemia (K-562), and human immortal keratinocyte (HaCaT) cell lines were purchased from the American Type Culture Collection (ATCC, Rockville, MD, USA). The cells were cultured in medium according to protocols (MEM for SW480 and SW620, RPMI 1640 for PC3 and K-562, and DMEM for HaCaT cells), supplemented with 10% FBS, penicillin (100 U/mL) and streptomycin (100 μg/mL), and cultured in a 37 °C/5% CO2 humidified incubator. The cells were cultured until appropriate confluence was achieved (80–90%). Next, they were harvested by treatment with 0.25% trypsin (Gibco Life Technologies, Waltham, MA, USA) excluding the non-adherent K-562 cell line and used for studies.
(§3) Cells without the studied compounds in medium were used as a control.
(§4) The cell viability was assessed by determination of MTT salt [3-(4,5-dimethylthiazol-2-yl)-2,5-diphenyltetrazoliumbromide] conversion by mitochondrial dehydrogenase. The MTT assay was performed as previously described. Alternatively, non-adherent leukemic cells were centrifuged in a microplate centrifuge (400× g, 5 min) during the collection stages. Experiments were repeated three times. Cell viability was presented as a percent of MTT reduction in the treated cells versus the control cells. The number of viable cells cultured without the studied compounds was assumed as 100%. A decreased relative MTT level indicated decreased cell viability. Thiourea compounds with the highest cytotoxic potential assessed by MTT determination (with the lowest IC50) were chosen for subsequent assessments of cytotoxicity mechanisms.
Background: Formazan colour is commonly taken as a measure of viable cells.

The test system of another series is SW620 cells. Nature of the series: MTT assay, SW620. The class given is cell-based, human. The following applies: 50% growth inhibition. On the procedure:
as §1, §2, §3, §4

The subject of a further series is PC3 cells. Briefly: MTT assay, PC3. The format is cell-based. The following applies: Homo sapiens, PC-3, 72 h, 50% growth inhibition. On the procedure: as §1, §2, §3, §4
The next series deals with K-562 cells. Briefly: MTT assay, K562. The format is cell-based, human. The following applies: 50% growth inhibition. On the procedure:
as §1, §2, §3, §4

The next series concerns HaCaT cells. Briefly: MTT assay, HaCaT normal cells. The format is cell-based, human. The following applies: 72 h. On the procedure:
as §1, §2, §3, §4

The test system of series [1] is SW480, SW620, PC3, K-562 cells. Briefly: MTT assay, summary over cancer cell lines. The class given is cell-based. The following applies: Homo sapiens, 72 h, depending on the tumor line, read-out: IC50 (range or bound over cancer cell lines). The method, then:
as §1, §3, §4

As to `Cc1c(Cl)cccc1NC(=S)Nc1cccc(C(F)(F)F)c1` [Compound 5, 1-(3-chloro-2-methylphenyl)-3-[3-(trifluoromethyl)phenyl]thiourea], the melting point was in the range of 163 to 165 °C. In the series with SW480 cells (Homo sapiens, SW480, 72 h), this compound gave an IC50 of 7.3 ± 0.89 µM. Besides, the IC50 in the series on SW620 cells (Homo sapiens, SW-620, 72 h) amounted to 23.2 ± 4.07 µM. This compound also came in with an IC50 with PC3 cells of 51.8 ± 3.19 µM. For the same compound, in the series on K-562 cells (Homo sapiens, K562, 72 h), inhibition was half-maximal at 52.5 ± 2.14 µM (IC50). In the series on HaCaT cells (Homo sapiens, HaCaT), the 50% inhibitory concentration (IC50) was 55.6 ± 1.74 µM. For the same compound, in series [1], the IC50 was at most 10 µM.

On to `FC(F)(F)c1cccc(NC(=S)NCCc2ccccc2)c1` [Compound 12, 1-(2-phenylethyl)-3-[3-(trifluoromethyl)-phenyl]thiourea], for which the IC50 in the series on SW480 cells (Homo sapiens, SW480, 72 h) was 25.3 ± 8.53 µM; in the series on SW620 cells (Homo sapiens, SW-620, 72 h), 38.2 ± 3.1 µM; with PC3 cells, 26.7 ± 3.95 µM; in the series on K-562 cells (Homo sapiens, K562, 72 h) it was 23.8 ± 0.45 µM; in the series with HaCaT cells (Homo sapiens, HaCaT) it was 55.4 ± 1.08 µM; in series [1] it was 23.8 to 38.2 µM.

With `N.N.[Cl][Pt][Cl]` [Cisplatin, reference compound], the IC50 in the series on SW480 cells (72 h) worked out at 10.4 ± 0.9 µM; in the series on SW620 cells (72 h) it was 6.7 ± 1.1 µM; with K-562 cells (72 h), 8.2 ± 4.08 µM; in the series on HaCaT cells, 6.3 ± 0.7 µM.

Regarding `Cc1ccc(Cl)cc1NC(=S)Nc1cccc(C(F)(F)F)c1` [Compound 6, 1-(5-chloro-2-methylphenyl)-3-[3-(trifluoromethyl)phenyl]thiourea], the IC50 was 15.6 ± 4.1 µM in the series on SW480 cells (72 h); 12.7 to 15.6 µM in the series on SW480 cells (Homo sapiens, SW480, 72 h); 22.1 ± 4.36 µM with SW620 cells (Homo sapiens, SW-620, 72 h); 65.9 ± 10.5 µM in the series on PC3 cells; 40.3 ± 3.88 µM in the series on K-562 cells (Homo sapiens, K562, 72 h); 14.5 ± 1.08 µM in the series with HaCaT cells (Homo sapiens, HaCaT).

In the case of `FC(F)(F)c1cccc(NC(=S)Nc2cccc(Cl)c2Cl)c1` [Compound 4, 1-(2,3-dichlorophenyl)-3-[3-(trifluoromethyl)phenyl]thiourea], the IC50 in the series on SW480 cells (Homo sapiens, SW480, 72 h) was 22.5 ± 0.1 µM; with SW620 cells (Homo sapiens, SW-620, 72 h), 14 ± 1.73 µM; with PC3 cells it was 10.5 ± 2.52 µM; with K-562 cells (Homo sapiens, K562, 72 h), 35.9 ± 0.07 µM; in the series on HaCaT cells (Homo sapiens, HaCaT) it was 13.9 ± 1.7 µM; in series [1], at most 10 µM.

For `FC(F)(F)c1cccc(NC(=S)Nc2ccc(Br)cc2)c1` [Compound 11, 1-(4-bromophenyl)-3-[3-(trifluoromethyl)phenyl]thiourea], the IC50 was 41.5 ± 4.46 µM in the series on SW480 cells (Homo sapiens, SW480, 72 h); 16.2 ± 4.08 µM with SW620 cells (Homo sapiens, SW-620, 72 h); 76.6 ± 4.7 µM with PC3 cells; 74.2 ± 6.82 µM in the series with K-562 cells (Homo sapiens, K562, 72 h); 17.2 ± 0.64 µM with HaCaT cells (Homo sapiens, HaCaT).

Take `COc1cccc2c1C(=O)c1c(O)c3c(c(O)c1C2=O)C[C@@](O)(C(=O)CO)C[C@@H]3O[C@H]1C[C@H](N)[C@H](O)[C@H](C)O1` [Doxorubicin, reference compound]: the IC50 in the series on SW480 cells (Homo sapiens, SW480, 72 h) turned out to be 0.8 ± 0.1 µM; in the series with SW620 cells (Homo sapiens, SW-620, 72 h), 0.3 ± 0.08 µM; in the series with PC3 cells, 0.3 ± 0.12 µM; with K-562 cells (Homo sapiens, K562, 72 h), 0.2 ± 0.1 µM; in the series on HaCaT cells (Homo sapiens, HaCaT), 0.3 ± 0.11 µM.

`FC(F)(F)c1cccc(NC(=S)Nc2ccccc2C(F)(F)F)c1` [Compound 7, 1-[2-(trifluoromethyl)phenyl]-3-[3-(trifluoromethyl)phenyl]thiourea]: the melting point lay within 173 to 175 °C. In the series with SW480 cells (Homo sapiens, SW480, 72 h), this compound showed an IC50 above 100 µM. Further, the IC50 in the series with SW620 cells (Homo sapiens, SW-620, 72 h) turned out to be 30.1 ± 9.74 µM. Further, the concentration for half-maximal inhibition (IC50) with PC3 cells was found to be 17.1 ± 0.57 µM. In addition, the midpoint of inhibition in the series on K-562 cells (Homo sapiens, K562, 72 h), the IC50, lay at 76.5 ± 4.57 µM. In the series with HaCaT cells (Homo sapiens, HaCaT), this compound had a half-inhibitory concentration (IC50) of 65.7 ± 3.83 µM.

`N#Cc1ccc(NC(=S)Nc2cccc(C(F)(F)F)c2)cc1` [Compound 10, 1-(4-cyanophenyl)-3-[3-(trifluoromethyl)-phenyl]thiourea]: the IC50 was 20.6 ± 3.59 µM in the series with SW480 cells (Homo sapiens, SW480, 72 h); 18.7 ± 5.92 µM with SW620 cells (Homo sapiens, SW-620, 72 h); 66.2 ± 4.47 µM in the series on PC3 cells; 12.9 ± 4.33 µM in the series on K-562 cells (72 h); 10.2 to 12.9 µM in the series on K-562 cells (Homo sapiens, K562, 72 h); 50.1 ± 4.89 µM in the series on HaCaT cells (Homo sapiens, HaCaT).

As a reminder, the IC50 is the concentration that inhibits the measured activity by half. The term melting point denotes the temperature of the solid-liquid transition.
